# Laboratory results as given in patent publication US20190169140A1, “IDO1 INHIBITOR AND PREPARATION METHOD AND APPLICATION THEREOF” (SHANDONG LUYE PHARMACEUTICAL CO., LTD., priority 2016, published 2019).
# Marks after values point to notes of the source that are not given here.
# Experiments:
# [1] = molecular target: T1, IDO1 enzyme in Hela cells (Homo sapiens, UniProt P14902); assay: Test of hIDO1 for cytological activity (Hela cell kynurenine by LCMS, interferon-γ induced); format: cell-based; conditions: interferon-γ 100 ng/ml, 20 hours
# T1 construct: endogenous in cells; host or cells: Hela cells, induced with recombinant human interferon-γ
# Procedure: 2. Test of hIDO1 for Cytological Activity
# Changes in Hela cell kynurenine were detected by an LCMS method. With an IC50 value of a compound as an index, an inhibitory effect of the compound on IDO1 enzyme was evaluated.
# The culture medium, trypsin, and DPBS were preheated in water bath at 37° C. The culture medium was removed by sucking from cell culture, followed by cleaning the cell culture with 10 mL of DPBS; the preheated trypsin was added to the culture flask, which was revolved to make the culture flask covered by trypsin uniformly, and placed into an incubator at 37° C. with 5% CO2 for digestion for 1-2 minutes; 10-15 mL of the culture medium was used to suspend cells each T150, followed by centrifugation at 800 rpm for 5 minutes. 10 mL of the culture medium was used to resuspend the cells. 1 mL of the cell resuspension was pipetted, and counted with Vi-cell; the Hela cells were diluted to 5×10^5/mL with the culture medium, 80 μL of the diluted Hela cells were added to the 96-well cell plate, and incubated in the an incubator at 37° C. with 5% CO2 for 5-6 hours.
# The compound was diluted with DMSO to 1 mM, with 9 gradients, each 3-fold dilution, in duplicate. 5 μL of the already diluted compound DMSO solution was added to the compound plate containing 95 μL of the culture medium. After even mixing, 10 μL of the mixture was transferred to the cell plate.
# 10 μL of recombinant human interferon-γ was added to result in a final concentration of 100 ng/ml, to induce expression of IDO1. Incubation was carried out in the 5% CO2 incubator at 37° C. for 20 hours. 4 μL of 5% (w/v) trichloroacetic acid was added, followed by even mixing and incubation at 50° C. for 30 minutes. After centrifugation at 2400 rpm for 10 minutes, 40 μL of a supernatant was added to a 96-well V-bottom plate, followed by addition of a precipitant. Centrifugation was carried out at 4000 rpm for 10 minutes after even mixing. 100 μL of the supernatant was transferred to a new 96-well V-bottom plate. A content of kynurenine was detected through LCMS.
# A reference well to which the interferon-γ was added but no compound was added was set to have an inhibition rate of 0%, and a reference well to which no Hela cell was added was set to have an inhibition rate of 100%. Data was analyzed with XLFit 5 to calculate an IC50 value of the compound.
# [2] = test system: mice colon cancer CT26; assay: Efficacy against mice colon cancer CT26 transplanted tumor; format: in vivo, BALB/c mice; conditions: for Inhibitory Rate for Tumor Weight / Tumor Weight / mean tumor weight compared with the control group: end of experiment; for tumor inhibitory effect compared at the same dose: same dose of 100 mg/kg
# Procedure: Research on Efficacy of Anti-Mice Colon Cancer Ct26
# In the present research, colon cancer CT26 models were employed to compare differences between compound 231 and compounds 360 and 117 in antitumor effects.
# Therefore, the dose of the two compounds, compound 360 and compound 117, in the present experiment was set as 100 mg/kg. In order to observe dose-efficacy relevance of 231, a dose of the compound 231 was set as 25, 50, 100, 200 mg/kg in the present experiment. All drugs were administered by gavage, twice a day.
# According to document reports, mice colon cancer CT26 is a commonly used tumor model for evaluating immunological drugs. […] Therefore, CT26-bearng BALB/c models were chosen in the present experiment for research on efficacy and tissue distribution.
# In a super-clean bench, each mouse was subcutaneously inoculated with 0.2 mL of the tumor cell suspension at shoulder, with an inoculation amount of 1×10^5 per mouse. When a tumor block grew to be 500-1000 mm^3, the tumor block was taken out, cut into pieces with scissors, and subcutaneously inoculated at shoulder at the mouse's back using a subcutaneous embedding implantation puncture needle (with a diameter of 1.2 mm).
# The day of tumor inoculation was defined as Day 0, and the inoculated animals were grouped randomly on the day of inoculation. One day after the inoculation (Day 1), the administration was started. The experiment had 7 groups in total, with 12 animals in each group. See details in Table 12 for information on animal grouping and administration.
# It was an experimental cycle when the tumor in the control group grew to have a volume of 3000 mm^3. The following indexes were observed during the experiment.
# (1) As for tumor growth curve, when the tumor was measurable, a maximum diameter (a) and a minimum diameter (b) of the tumor were measured once every other day, to calculate the tumor volume (a calculation formula is V=½×a×b^2), and anti-tumor effect of the tested drug was observed dynamically.
# (4) As for tumor inhibitory rate, when the experiment was ended, the mice were killed by cervical dislocation, the tumor blocks were taken out and weighed, to calculate the tumor inhibitory rate, where tumor inhibitory rate=(mean tumor weight of the control group-mean tumor weight of the treatment group)/mean tumor weight of the control group×100%), and the tumor blocks were photographed with a digital camera for recording.
# T1 sequence (P14902 whole entry): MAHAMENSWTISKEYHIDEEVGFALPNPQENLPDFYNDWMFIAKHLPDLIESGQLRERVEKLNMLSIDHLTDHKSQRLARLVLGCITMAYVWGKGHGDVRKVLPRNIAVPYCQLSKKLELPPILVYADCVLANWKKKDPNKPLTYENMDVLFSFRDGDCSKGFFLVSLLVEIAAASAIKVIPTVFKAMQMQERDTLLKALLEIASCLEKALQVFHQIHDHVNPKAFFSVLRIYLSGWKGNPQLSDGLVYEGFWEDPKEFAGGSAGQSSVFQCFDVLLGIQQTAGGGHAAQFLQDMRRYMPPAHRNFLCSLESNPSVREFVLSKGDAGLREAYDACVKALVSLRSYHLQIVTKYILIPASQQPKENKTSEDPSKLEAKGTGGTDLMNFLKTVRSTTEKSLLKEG
smiles,measurement,setting,value
NS(=O)(=O)NCCOc1nonc1/C(=N/O)Nc1ccc(F)c(Br)c1 [Compound 0015],IC50,[1],14 nM
NS(=O)(=O)NCCSc1nonc1/C(=N/O)Nc1ccc(F)c(Br)c1 [Compound 0117],IC50,[1],5.85 nM
same,mean tumor volume compared with the control group during the test,[2]; 100 mg/kg gavage BID,"always less than that of the control group, but without statistical difference"
same,animals without tumor block when the test was ended,"[2]; 100 mg/kg gavage BID, 12 animals",one animal on which no tumor block grew
same,Mean Tumor Volume,"[2]; 100 mg/kg gavage BID, D12",517.3 ± 261.9 mm^3
same,Mean Tumor Volume,"[2]; 100 mg/kg gavage BID, D14",760.9 ± 335.7 mm^3
same,Mean Tumor Volume,"[2]; 100 mg/kg gavage BID, D17",1410.5 ± 734.0 mm^3
same,Mean Tumor Volume,"[2]; 100 mg/kg gavage BID, Day8",130.1 ± 31.1 mm^3
same,Mean Tumor Volume,"[2]; 100 mg/kg gavage BID, Day10",262.3 ± 131.2 mm^3
same,Inhibitory Rate for Tumor Weight,[2]; 100 mg/kg gavage BID,14.4%
same,Tumor Weight,[2]; 100 mg/kg gavage BID,1.71 ± 0.76 g
same,mean tumor weight compared with the control group,[2]; 100 mg/kg gavage BID,"less than that of the control group, but without statistical difference"
CC(=O)NCCSc1nonc1/C(=N/O)Nc1ccc(F)c(Br)c1 [Compound 0227],IC50,[1],3.1 nM
NC(=O)NCCSc1nonc1/C(=N/O)Nc1ccc(F)c(Br)c1 [Compound 0231],IC50,[1],4.35 nM
same,tumor volume compared with the control group,[2]; 25 mg/kg (low dose) gavage BID,remarkably less than that of the control group at Day 10 and Day 12
same,Mean Tumor Volume,"[2]; 25 mg/kg gavage BID, D12",411.7 ± 275.4* mm^3
same,Mean Tumor Volume,"[2]; 25 mg/kg gavage BID, D14",721.9 ± 575.3 mm^3
same,Mean Tumor Volume,"[2]; 25 mg/kg gavage BID, D17",1471.2 ± 1269.4 mm^3
same,Mean Tumor Volume,"[2]; 25 mg/kg gavage BID, Day8",69.5 ± 21.9 mm^3
same,Mean Tumor Volume,"[2]; 25 mg/kg gavage BID, Day10",229.1 ± 76.7* mm^3
same,Inhibitory Rate for Tumor Weight,[2]; 25 mg/kg gavage BID,25.9%
same,Tumor Weight,[2]; 25 mg/kg gavage BID,1.49 ± 1.16 g
same,Mean Tumor Volume,"[2]; 50 mg/kg gavage BID, D12",436.8 ± 204.9* mm^3
same,Mean Tumor Volume,"[2]; 50 mg/kg gavage BID, D14",661.5 ± 255.6* mm^3
same,Mean Tumor Volume,"[2]; 50 mg/kg gavage BID, D17",1242.2 ± 500.9* mm^3
same,Mean Tumor Volume,"[2]; 50 mg/kg gavage BID, Day8",94.5 ± 52.5 mm^3
same,Mean Tumor Volume,"[2]; 50 mg/kg gavage BID, Day10",234.6 ± 117.6* mm^3
same,Inhibitory Rate for Tumor Weight,[2]; 50 mg/kg gavage BID,29.2%
same,Tumor Weight,[2]; 50 mg/kg gavage BID,1.42 ± 0.56 g
same,Mean Tumor Volume,"[2]; 100 mg/kg gavage BID, D12",372.4 ± 308.9* mm^3
same,Mean Tumor Volume,"[2]; 100 mg/kg gavage BID, D14",598.6 ± 442.3* mm^3
same,Mean Tumor Volume,"[2]; 100 mg/kg gavage BID, D17",1195.4 ± 779.8* mm^3
same,Mean Tumor Volume,"[2]; 100 mg/kg gavage BID, Day8",97.9 ± 86.9 mm^3
same,Mean Tumor Volume,"[2]; 100 mg/kg gavage BID, Day10",168.2 ± 145.5* mm^3
same,Inhibitory Rate for Tumor Weight,[2]; 100 mg/kg gavage BID,34.0%
same,Tumor Weight,[2]; 100 mg/kg gavage BID,1.32 ± 1.09 g
same,Mean Tumor Volume,"[2]; 200 mg/kg gavage BID, D12",300.4 ± 231.8* mm^3
same,Mean Tumor Volume,"[2]; 200 mg/kg gavage BID, D14",512.2 ± 351.8* mm^3
same,Mean Tumor Volume,"[2]; 200 mg/kg gavage BID, D17",909.7 ± 544.6* mm^3
same,Mean Tumor Volume,"[2]; 200 mg/kg gavage BID, Day8",74.2 ± 32.2 mm^3
same,Mean Tumor Volume,"[2]; 200 mg/kg gavage BID, Day10",160.5 ± 114.9* mm^3
same,Inhibitory Rate for Tumor Weight,[2]; 200 mg/kg gavage BID,56.8%
same,Tumor Weight,[2]; 200 mg/kg gavage BID,0.87 ± 0.74 g
same,mean tumor weight compared with the control group,[2]; 200 mg/kg gavage BID,remarkably less than that of the control group
same,mean tumor weight compared with the control group,"[2]; 25, 50, 100 mg/kg gavage BID","less than that of the control group, but without statistical difference"
same,"tumor inhibitory effect, dose dependence","[2]; 25, 50, 100, 200 mg/kg gavage BID",dose-dependent manner
same,tumor volume compared with the control group,"[2]; dose equal to or greater than 50 mg/kg, Day 10 to end of test",always remarkably less than that of the control group
same,tumor inhibitory effect compared at the same dose,[2],equivalent tumor inhibitory effect
"NS(=O)(=O)NCCNc1nonc1C(=NO)Nc1ccc(F)c(Br)c1 [Compound 360, INCB024360, reference compound]",mean tumor volume compared with the control group during the test,[2]; 100 mg/kg gavage BID,"always less than that of the control group, but without statistical difference"
same,Mean Tumor Volume,"[2]; 100 mg/kg gavage BID, D12",512.0 ± 240.2 mm^3
same,Mean Tumor Volume,"[2]; 100 mg/kg gavage BID, D14",949.2 ± 773.3 mm^3
same,Mean Tumor Volume,"[2]; 100 mg/kg gavage BID, D17",1531.0 ± 606.0 mm^3
same,Mean Tumor Volume,"[2]; 100 mg/kg gavage BID, Day8",95.2 ± 36.6 mm^3
same,Mean Tumor Volume,"[2]; 100 mg/kg gavage BID, Day10",303.5 ± 233.3 mm^3
same,Inhibitory Rate for Tumor Weight,[2]; 100 mg/kg gavage BID,29.5%
same,Tumor Weight,[2]; 100 mg/kg gavage BID,1.41 ± 0.81 g
same,mean tumor weight compared with the control group,[2]; 100 mg/kg gavage BID,"less than that of the control group, but without statistical difference"
same,tumor inhibitory rate for CT26,"[2]; preliminary experimental research, gavage 100 mg/kg bid",30-50%
same,tumor inhibitory effect compared at the same dose,[2],equivalent tumor inhibitory effect
